In patent US9719981B2, “RAC1 inhibitors for the treatment of alport glomerular disease” (Father Flanagan's Boys' Home, priority 2012, dated 2017):

Key:
[1] = system: 129 Sv autosomal Alport mice; experiment: Sitaxentan treatment of 129 Sv autosomal Alport mice; format: in vivo, mouse
Method: FIG. 32. […] At least 6 glomeruli from at least 3 independent animals per group were analyzed by quantifying red fluorescence in circumferential capillary loops (defined by laminin α5 immunostaining in green) using NIH image J software. Mesangial angles were excluded. A) An example of how the capillaries were partitioned for these measures. B) Immunogold labeling for integrin α8 in a filopodial cross-section on the sub-endothelial aspect of an Alport capillary loop (arrow). Note the absence of immunogold labeling in the podocyte pedicles (asterisks) and the fenestrated endothelium (arrowheads). C) Quantitative results for red fluorescence in the capillary loops.
FIG. 33. […] Urine was collected at the indicated time points and analyzed for albumin using an ELISA kit. Albumin measures were normalized to urinary creatinine. Note that measurable albumin in the Sitaxentan-treated mice was not detected until 6 weeks of age indicating a delayed onset of glomerular disease.
129 Sv autosomal Alport mice were given Sitaxentan once daily by oral gavage from 2 weeks to 7 weeks of age. Kidney cryosections were immunostained using antibodies for laminin α2 and integrin α8 to determine the effect of drug treatment on laminin 211 deposition in the GBM or laminin α5 and integrin α8 to determine the degree of mesangial filopodial invasion in the glomerular capillaries. In addition, transmission electron microscopy was used to determine whether the ETAR antagonist ameliorates GBM damage.

[2] = system: 129 autosomal Alport mice; experiment: Endothelin receptor blockade (Bosentan or Sitaxentan) in 129 autosomal Alport mice; format: in vivo, mouse; settings: for Mesangial filopodial invasion and deposition of laminin 211 in the glomerular capillaries: Alport mouse model; for Ameliorating Alport renal disease (comparison of the two antagonists) / GBM structural abnormalities / Glomerular expression of MMPs and pro-inflammatory cytokines / Mesangial process invasion of the glomerular capillaries / Onset and progression of proteinuria: treated from 2 to 7 weeks of age
Method: With this example, 129 autosomal Alport mice were given either Bosentan (an endothelin A and B receptor antagonist) or Sitaxentan (an endothelin A receptor antagonist) from 2 to 7 weeks of age. Mice were analyzed longitudinally for proteinuria and BUN, glomerular RNA for gene expression of MMPs and pro-inflammatory cytokines by real time RT-PCR, and tissue was analyzed histochemistry and immunohistochemistry for pathologic changes.
To determine whether ETR antagonism prevents mesangial filopodia formation in vivo, we treated 129 Sv Alport mice with either Bosentan (ETAR and ETBR antagonist) or Sitaxentan (an ETAR antagonist) from 2 weeks to 7 weeks of age.

CDC42 = experiment: ELISA for GTP-CDC42 in endothelin-1 treated mesangial cells; format: cell-based, mouse
Method: (§1) FIG. 30. Treatment of mesangial cells with endothelin-1 activates CDC42 and induces the formation of drebrin-positive actin microspikes; microspikes and CDC42 activation are inhibited by pre-treatment of cells with Sitaxentan. A) Cultured mesangial cells were serum starved, pretreated for 1 hour with or without Sitaxentan, treated for 30 minutes with endothelin-1, fixed with acetone, and dual stained with anti-drebrin antibodies (red) and phalloidin (green). Drebrin-positive microspikes (filopodia, denoted by arrowheads) are highly abundant on the endothelin-treated cells, but not detected when the cells are pre-treated with Sitaxentan. B) Cells were treated as in A, then lysates prepared and assayed by ELISA for GTP-CDC42.
(§2) To address this, serum-starved cultured mesangial cells were pre-treated (or not) with the ETAR antagonist, Sitaxentan, and then stimulated the cells with endothelin-1. Cells were then dual labeled with anti-drebrin antibodies (drebrin stabilizes actin filaments in filopodia) and phalloidin. […] Lysates from cultured mesangial cells were further analysed using these same conditions for the activation of CDC42 using a commercial ELISA assay for GTP-CDC42.

cultured mesangial cells = experiment: Endothelin-1 induced drebrin-positive actin microspikes in mesangial cells; format: cell-based, mouse
Method: as §1, §2

[3] = system: integrin α1-null mesangial cells; experiment: Boyden chamber (Transwell) cell migration assay, integrin α1-null mesangial cells; format: cell-based, mouse; settings: relative to 10% FCS
Method: MES Migration (insert). Transwell cell migration assays were performed as described by Daniel et al. (Daniel et al., 2012, Lab Invest; 92(6): 812-26) with some modifications. 8 micron, 24-well plate control inserts (BD Bioscience, Bedford, Mass.) were coated overnight at 4° C. with 100 μl of 0.1% gelatin/PBS then washed 1× with PBS. MES cultures were incubated in 1% FCS overnight, then 0.05% BSA-containing media for at least 8 hours, washed 1× with PBS and carefully tryspinized to ensure a single cell suspension and limited “clumping” of cells. After serum-neutralization and subsequent centrifugation, ˜100,000 cells were resuspended in 1.5 mls of 0.05% BSA media containing activators/inhibitors. The wells of a 24-well plate were filled with 0.75 mls of 10% FCS-containing media plus activators/inhibitors (excluding 0.05% BSA control well). 0.5 ml of cell-suspension was loaded into the gelatin-coated insert and the insert placed in a well. Wells were visually inspected for bubbles beneath insert and equal distribution of cell-suspension. Cells were allowed to migrate overnight (˜18 hrs). […] Inserts were air dried and counted at 100× magnification. Five fields were counted on each insert including one center and four periphery areas. Data was expressed as relative to 10% FCS control well (set equal to one).

[4] = system: primary cultured mesangial cells; experiment: Boyden chamber (Transwell) cell migration assay, wild type mesangial cells; format: cell-based, mouse; settings: relative to 10% FCS, p<0.05
Method: MES Migration (insert). Transwell cell migration assays were performed as described by Daniel et al. (Daniel et al., 2012, Lab Invest; 92(6): 812-26) with some modifications. 8 micron, 24-well plate control inserts (BD Bioscience, Bedford, Mass.) were coated overnight at 4° C. with 100 μl of 0.1% gelatin/PBS then washed 1× with PBS. MES cultures were incubated in 1% FCS overnight, then 0.05% BSA-containing media for at least 8 hours, washed 1× with PBS and carefully tryspinized to ensure a single cell suspension and limited “clumping” of cells. After serum-neutralization and subsequent centrifugation, ˜100,000 cells were resuspended in 1.5 mls of 0.05% BSA media containing activators/inhibitors. The wells of a 24-well plate were filled with 0.75 mls of 10% FCS-containing media plus activators/inhibitors (excluding 0.05% BSA control well). 0.5 ml of cell-suspension was loaded into the gelatin-coated insert and the insert placed in a well. Wells were visually inspected for bubbles beneath insert and equal distribution of cell-suspension. Cells were allowed to migrate overnight (˜18 hrs). Using a moistened cotton swab, non-migrated cells were liberated from the apical-side of the insert by gentle but firm rubbing. A second swab repeated the removal and was followed by a single wash with PBS. Inserts were fixed, stained and washed (2×) in companion 24 well plate(s) containing 0.5 mls MEOH, 0.5 mls 1% Toluidine Blue in 1% Borax and 0.5 mls distilled H2O, respectively. Inserts were air dried and counted at 100× magnification. Five fields were counted on each insert including one center and four periphery areas. Data was expressed as relative to 10% FCS control well (set equal to one).

[5] = system: cultured wild type mesangial cells; experiment: LPS-induced actin cytoskeletal rearrangement (phalloidin staining); format: cell-based, mouse; settings: 10 ng/ml LPS; 10 μM Rac-1 inhibitor or 1 μM CDC42 inhibitor; blinded
Method: Activation of mesangial cell cultures by treatment with LPS. Sub-confluent mesangial cells were tryspinized; plated at low density on Rat tail type 1 collagen (BD Biosciences) coated cytology slides (VWR) and incubated overnight in 1% FCS-containing media. One hour after the addition of serum-free media, 1 μM CDC42 Inhibitor (KSC-23-233) and 10 μM Rac-1 Inhibitor, NSC-23766 (Tocris) were added to individual slides and allowed to incubate for an additional hour. 10 ng/ml Lipopolysaccharides (Sigma-Aldrich) was added to cells, incubated 1 hour, fixed in ice cold acetone for 5 minutes and allowed to air dry ˜2 hours. Cells were stained with a 1:100 dilution of antibodies specific for CDC42 (10155-1-AP, PROTEINTECH™), and phalloidin (Molecular Probes) imaged. Untreated, LPS alone and LPS plus inhibitors treatments were repeated on two different derivations of primary mesangial cells with qualitatively consistent results.

[6] = system: 129 Sv autosomal Alport mice; experiment: Bosentan treatment of 129 Sv autosomal Alport mice; format: in vivo, mouse
Method: It is known that matrix metalloproteinases (MMPs), transforming growth factor beta 1 (TGF-β1), and monocyte chemoattractant protein-1 (MCP-1) contribute to the progression of Alport glomerular pathology (Cosgrove et al., 2000, Am J Pathol; 157(5):1649-59; Rao et al., 2006, Am J Pathol; 169(1):32-46; Eisberg et al., 2006, PLoS Med; 3(4):e100). 129 Sv autosomal Alport mice and wild type littermates were treated with 100 mg/kg Bosentan or with […] vehicle by oral gavage from 2 to 7 weeks of age. One kidney was prepared for immunohistochemistry, and the other used for glomerular RNA isolation. […] MMP-9 expression was not affected; however this MMP has been shown not to contribute to progression of Alport glomerular disease (Andrews et al., 2000, Am J Pathol; 157(1):303-11). Kidney cryosections from these same mice were immunostained using antibodies against fibronectin, to assess interstitial fibrosis, and CD11b, to assess the degree of monocytic interstitial infiltration.

[7] = pretreated 1 hour, endothelin-1 for 30 minutes
[8] = 100 mg/kg oral gavage from 2 to 7 weeks of age, vs vehicle
[9] = serum-starved cells, 30 minutes

What does the source list for `Cc1cc2c(cc1CC(=O)c1sccc1S(=O)(=O)Nc1onc(C)c1Cl)OCO2` [Sitaxentan, N-(4-chloro-3-methyl-1,2-oxazol-5-yl)-2-[2-(6-methyl-2H-1,3-benzodioxol-5-yl)acetyl]thiophene-3-sulfonamide]?
GBM architecture (transmission electron microscopy) ([1]; 7 weeks of age): normalization; Interstitial fibrosis (fibronectin immunostaining) ([1]; 7 weeks of age): profoundly ameliorated; Monocyte recruitment to the renal interstitium (CD11b immunostaining) ([1]; 7 weeks of age): profoundly ameliorated; Capillary integrin α8 immunostaining (quantified red fluorescence) ([1]; at least 6 glomeruli from at least three mice per group): normalization; Age at which proteinuria was first detected ([1]; normally detected by 3 weeks of age): 6 weeks of age; Mesangial filopodial invasion of glomerular capillaries ([1]; once daily oral gavage from 2 weeks to 7 weeks of age, vs vehicle): near complete absence; Proteinuria after the onset ([1]; urinary albumin normalized to creatinine): significantly reduced; Glomerular expression of MMP-10, -12 and MCP-1 compared with the reduction seen with Bosentan ([1]; with the exception of TGF-β1): quantitatively similar results; Mesangial filopodial invasion and deposition of laminin 211 in the glomerular capillaries [2]: highly effective; Ameliorating Alport renal disease (comparison of the two antagonists) [2]: equally effective; GBM structural abnormalities [2]: ameliorating; Glomerular expression of MMPs and pro-inflammatory cytokines [2]: significantly reducing; Mesangial process invasion of the glomerular capillaries [2]: markedly reduced; Onset and progression of proteinuria [2]: delaying the onset and progression; Endothelin-1 induced CDC42 activation (GTP-CDC42), with antagonist pretreatment (CDC42; [7]): prevents; Endothelin-1 induced formation of drebrin-positive microspikes, with antagonist pretreatment (cultured mesangial cells; [7]): blocks

What does the source list for ML141?
Integrin α1-null mesangial cell migration [3]: unaffected; Migration of wild type mesangial cells [4]: significantly reduced; LPS-induced morphological change (filopodia / actin spikes) in presence of inhibitor [5]: could not be distinguished in blinded experiments form untreated wild type mesangial cells

Which results are given for `COc1ccccc1Oc1c(NS(=O)(=O)c2ccc(C(C)(C)C)cc2)nc(-c2ncccn2)nc1OCCO` [Bosentan, 4-tert-butyl-N-[6-(2-hydroxy-ethoxy)-5-(2-methoxy-phenoxy)[2,{acuteover (2)}]-bipyrimidin-4-yl]-benzenesulfonamide monohydrate]?
Glomerular MMP-9 expression [6, 8]: not affected; Glomerular mRNA expression of IL-6 [6, 8]: significant reduction; Glomerular mRNA expression of MMP-10 [6, 8]: significant reduction; Glomerular mRNA expression of MMP-12 [6, 8]: significant reduction; Glomerular mRNA expression of TGF-β1 [6, 8]: significant reduction; Interstitial fibrosis (fibronectin immunostaining) ([6]; 7 weeks of age, vs vehicle): near complete blockade; Mesangial process invasion of glomerular capillaries (integrin α8 / laminin α5 immunostaining) ([6]; 7 weeks of age, vs vehicle): largely localized to the mesangial matrix, with occasional interposition into the capillary loops observed; Monocytic interstitial infiltration (CD11b immunostaining) ([6]; 7 weeks of age, vs vehicle): near complete blockade; Glomerular expression of MCP-1 ([6]; Bosentan-treated Alport mice vs vehicle): significantly reduced; Mesangial filopodial invasion and deposition of laminin 211 in the glomerular capillaries [2]: highly effective; Ameliorating Alport renal disease (comparison of the two antagonists) [2]: equally effective; GBM structural abnormalities [2]: ameliorating; Glomerular expression of MMPs and pro-inflammatory cytokines [2]: significantly reducing; Mesangial process invasion of the glomerular capillaries [2]: markedly reduced; Onset and progression of proteinuria [2]: delaying the onset and progression

For `CCn1c(-c2nonc2N)nc2c(C#CC(C)(C)O)ncc(OC[C@H]3CCCNC3)c21` [GSK 690693], which “Migration of wild type mesangial cells” value [4] is on record?
The value was “not affected”.

With “endothelin-1: stimulus activating endothelin receptors on mesangial cells” as the molecule, how does the “CDC42 activation (GTP-CDC42) on stimulation” value (CDC42; [9]) read?
The value was “significantly activates”.

And the “Formation of drebrin-positive filopodial microspikes on stimulation” value (cultured mesangial cells; [9])?
Its value is “induces”.
